Assay results reported in patent publication US7598279B2, “Neurotherapeutic azole compounds” (SK Holdings Co., Ltd., priority 2005, dated 2009).

What was measured:
[1] = system: mice; assay: Maximal ElectroShock (MES)-induced tonic seizure test; assay type: in vivo; conditions: for responders at 30 mg/kg / ED50: Mus musculus; for responders at 30 mg/kg: read-out: Mice MES Protection % (mpk/peak time); for ED50: read-out: Mice MES ED50 (mpk/peak time)
Experimental: The “Maximal ElectroShock (MES)” test is a well-established pharmacological screening method for anticonvulsants against tonic-clonic seizures. The procedure employed in the MES test for anticonvulsants is as follows. The compounds to be tested were dissolved in 30% PEG400 and administered ip and po into animals. After the designated number of hours, maximal electroshock (50 mA, 60 Hz, 0.2 sec) was applied into animals via corneal electrodes using IITC Life Science model 11A Shocker. […] Median efficacy dose (ED50) levels were determined using three different dose levels with at least 8 mice in each group.

[2] = system: mice; assay: Pentylenetetrazol (PTZ)-induced clonic seizure test; assay type: in vivo; conditions: for responders at 30 mg/kg / ED50: Mus musculus; for responders at 30 mg/kg: read-out: Mice PTZ Protection % (mpk/peak time); for ED50: sc, read-out: Mice PTZ ED50 (mpk/peak time)
Experimental: The “Pentylenetetrazol (PTZ)” test for anticonvulsant and antianxiety activity was also carried out.
The procedure employed in the PTZ test is as follows. The compounds to be tested were dissolved in 30% PEG400 and administered ip and po into animals. After the designated number of hours, each animal was injected subcutaneously with 100 mg/kg of PTZ (CD97 dose) and observed for up to 30 minutes for the presence or absence of clonic spasms over 5 seconds. Median efficacy dose (ED50) levels were determined using three different dose levels with 8 mice in each group.

[3] = system: mice; assay: Forced swimming test (FST); assay type: in vivo; conditions: 30 min after dosing
Experimental: The “Forced swimming test (FST)” for antidepressant activity was also carried out. The procedure employed in the FST for antidepressant is as follows. The compounds to be tested were dissolved in 30% PEG400 and administered ip and po into animals. 30 min later, the immobility time during post 4 minutes of 6 minutes experiment time was measured.

[4] = system: TBPS site of GABA-A receptor; assay: GABA-A receptor (TBPS site) binding assay, [35S]TBPS; conditions: rat brain membranes, 2 nM [35S]TBPS
Experimental: Compounds of the inventions were tested for specific binding to TBPS (t-butyl bicyclophosphorothionate) site, an allosteric modulator site of GABA-A receptor as modified from G. Maksay and M. Simonyi, Eur. J. Pharmacol. 1985, 117(2), 275. and Gee, K. W. et al., J. Pharm. Exp. Ther. 1988, 246, 803.
This binding assay was performed using [35S] TBPS as radioligand in washed crude membrane homogenate from rat brains. Membrane preparations were carried out according to procedure described below. Sprague-Dawley (SD) rat weighting 230 g were killed by decapitation and their whole brains were rapidly removed and its cerebellums were excluded. The dissected brains were homogenized for 30 sec in 10 volumes (W/V) of ice-cold 0.32 M Sucrose and 50 mM Tris-citrate buffer pH 7.4 using glass homogenate. The homogenate was centrifuged at 2,000×g for 5 min at 4° C. And the supernatant re-centrifuged at 50,000×g for 20 min at 4° C. The supernatant was discarded and the resulting pellets were resuspended in 10 volumes (W/V) of ice-cold 50 mM Tris-citrate buffer pH 7.4. And then the suspended pellet was centrifuged at 50,000×g for 20 min at 4° C. The resulting pellets were suspended again in 32 volumes (W/V) of ice-cold 50 mM Tris-citrate buffer pH 7.4 with 0.05% Triton X-100 and then incubated in 37° C. for 60 min using a water bath. The incubated suspension was centrifuged at 50,000×g for 20 min at 4° C. Resuspending and centrifugation step of the remained pellets were repeated twice at the same manner and final pellets were resuspended in 10 volumes (W/V) of ice-cold 50 mM Tris-citrate buffer pH 7.4 to enable distribution of 2 ml aliquot in microcentrifuge tube, which were used immediately or kept at −80° C. for no more than 1 month before use.
For TBPS site binding assay, 50 μl of the tested compound were added to 100 μg membrane protein suspended in 0.15 ml of 50 mM Tris-citrate buffer with 200 mM NaCl pH 7.4 in presence of 2 nM of [35S] TBPS. The incubation of mixtures were carried out for 1.5 hours at 25° C. and then rapidly filtered over Whatman GF/C glass fiber filters, followed by twice 4.5 ml rinses with ice-cold incubation buffer. The filters were placed in counting vials and 4 ml scintillation solution. The vials were counted in a Beckman scintillation counter. Non-specific binding was determined in parallel incubations with 100 μM picrotoxin.
IC50 values for TBPS site binding assay was calculated using Graphpad PRISM v.3.00.

[5] = system: mice; assay: Light-Dark Box (LDB) test; assay type: in vivo
Experimental: Light-Dark Box (LDB) test, one of the unconditioned conflict tests, was used to investigate anxiolytic activity for several drugs such as Diazepam, Buspirone, etc (Allikmets et al, 1996; Belzung and Griebel, 2001; Cutler and Aitken, 1991; Leyre et al, 2004). In the present study, anxiolytic effect of azole compounds containing carbamoyl group represented by general structural formula (IX) was investigated on the LDB test in mice.
The animals were treated with compound 30 min prior to testing. The light-dark box consisted of a plexiglas apparatus measuring 45 cm×27 cm×27 cm (L×W×H), and was partitioned into two compartments, one fully opaque (dark compartment made of black plexiglas: 18 cm of total length of apparatus), while the second was lit from the compartment ceiling by a 100 W bulb. A small opening (7×7 cm) in the partition wall allowed free passage between the light and dark compartments.
Animals were placed at the lit compartment first, and the latency for escape into dark was checked and tested in the LDB for 5 min after the first entering into dark box. The animal, which the latency was over 2 min, was excluded from the test. Total time spent in the light compartment was counted. Movement of animal was checked through the TV-CCD camera by an experienced observer blind to the conditions of the experiment. A mouse whose four paws were in the new box was considered as having changed box.

[6] = treated 30 min prior to testing
[7] = treated 30 min prior to testing, dose not given

Row | SMILES | Mice FST Reduction of immobility % ([3]; dose not given) | TBPS Inhibition % (At 100 μM) [4] | ED50 ([1]; 0.5 h) | Mice FST Reduction of immobility % [3] | Mice LDB % Duration in the light box [5, 7] | other results
1 | O=C(OC(Cn1ncnn1)c1ccccc1Cl)N1CCC(Cc2ccccc2)CC1 (centres unmarked) [Example 138, 4-Benzyl-piperidine-1-carboxylic acid 1-(2-chloro-phenyl)-2-tetrazol-2-yl-ethyl ester] | 35.9% | 49.6% | – | – | – | responders at 30 mg/kg ([1]; 2 h): 100%; responders at 30 mg/kg ([2]; 4 h): 66.7%
2 | CC(C(OC(N)=O)c1ccc(Cl)c(Cl)c1)n1ncnn1 (centres unmarked) [Example 80, Carbamic acid 1-(3,4-dichloro-phenyl)-2-tetrazol-2-yl-propyl ester] | 50.6% | 64.8% | – | – | – | responders at 30 mg/kg ([1]; 4 h): 33.3%
3 | NC(=O)OC(Cn1ncnn1)c1c(Cl)cccc1Cl (centres unmarked) [Example 98, Carbamic acid 1-(2,6-dichloro-phenyl)-2-tetrazol-2-yl-ethyl ester] | 31.5% | 29.9% | 6.03 mg/kg | – | – | ED50 ([2]; 0.5 h): 11.6 mg/kg
4 | NC(=O)OC(Cn1nccn1)c1c(Cl)cccc1Cl (centres unmarked) [Example 99, Carbamic acid 1-(2,6-dichloro-phenyl)-2-[1,2,3]triazol-2-yl-ethyl ester] | – | 23.6% | 11.6 mg/kg | N.S | – | responders at 30 mg/kg ([2]; 2 h): 100%
5 | NC(=O)OC(COc1ccc(Cl)c(Cl)c1)Cn1ncnn1 (centres unmarked) [Example 148, Carbamic acid 2-(3,4-dichloro-phenoxy)-1-tetrazol-2-ylmethyl-ethyl ester] | – | 76.1% | – | N.S | – | responders at 30 mg/kg ([1]; 0.5 h): 100%; responders at 30 mg/kg ([2]; 4 h): 66.7%
6 | NC(=O)NC(=O)OC(Cn1ncnn1)c1ccccc1Cl (centres unmarked) [Example 129, O-1-(2-Chloro-phenyl)-2-tetrazol-2-yl ethyl allophanate] | – | 5.6% | – | N.S | – | Mice MES ED50 (mpk/peak time) ([1]; mice, peak time 0.5 hr): 13.7/0.5 hr mpk; Mice PTZ Protection % (mpk/peak time) ([2]; 3 mice, 30 mpk, 1 hr): 100% (30/1 hr)
7 | NC(=O)O[C@@H](Cn1nccn1)c1ccccc1Cl [Example 33, Carbamic acid (R)-1-(2-chloro-phenyl)-2-[1,2,3]triazol-2-yl-ethyl ester] | 26.2% | – | 9.72 mg/kg | – | – | Mice LDB % Duration in the light box [5, 6]: N.S; ED50 ([2]; 0.5 h): 8.18 mg/kg
8 | NC(=O)OC(Cn1ncnn1)c1ccccc1Cl (centres unmarked) [Example 2, Carbamic acid 1-(2-chloro-phenyl)-2-tetrazol-2-yl-ethyl ester] | – | – | 8.6 mg/kg | N.S | 180%^ | ED50 ([2]; 0.5 h): 5.9 mg/kg
9 | NC(=O)O[C@H](Cn1ncnn1)c1ccc(Cl)cc1Cl [Example 113, Carbamic acid (S)-1-(2,4-dichloro-phenyl)-2-tetrazol-2-yl-ethyl ester] | – | – | – | N.S | −172% ^ | ED50 ([1]; 1 h): 13 mg/kg; ED50 ([2]; 1 h): 20.7 mg/kg
10 | NC(=O)O[C@@H](Cn1ncnn1)c1ccc(Cl)cc1Cl [Example 103, Carbamic acid (R)-1-(2,4-dichloro-phenyl)-2-tetrazol-2-yl-ethyl ester] | – | – | – | N.S | 277.8% ^ | ED50 ([1]; 1 h): 19.2 mg/kg; ED50 ([2]; 1 h): 5.14 mg/kg; IC50 [4]: 13.4 µM
11 | NC(=O)O[C@@H](Cn1nccn1)c1ccc(Cl)cc1 [Example 86, Carbamic acid (R)-1-(4-chloro-phenyl)-2-[1,2,3]triazol-2-yl-ethyl ester] | – | 18.9% | 21.4 mg/kg | N.S | – | –
12 | NC(=O)O[C@H](Cn1nccn1)c1ccc(Cl)cc1Cl [Example 114, Carbamic acid (S)-1-(2,4-dichloro-phenyl)-2-[1,2,3]triazol-2-yl-ethyl ester] | – | – | – | N.S | 172.5% ^ | ED50 ([1]; 1 h): 33.9 mg/kg; ED50 ([2]; 1 h): 16.9 mg/kg; IC50 [4]: 107 µM
13 | NC(=O)O[C@@H](Cn1ncnn1)c1c(Cl)cccc1Cl [Example 126, Carbamic acid (R)-1-(2,6-dichloro-phenyl)-2-tetrazol-2-yl-ethyl ester] | 72.0% | 0.3% | 2.7 mg/kg | – | 241.5% ^ | ED50 ([2]; 0.5 h): 5.06 mg/kg
14 | NC(=O)OC(Cn1ncnn1)c1cc(Cl)ccc1Cl (centres unmarked) [Example 89, Carbamic acid 1-(2,5-dichloro-phenyl)-2-tetrazol-2-yl-ethyl ester] | – | 27.6% | – | N.S | 167.4% ^ | ED50 ([1]; 1 h): 6.15 mg/kg; ED50 ([2]; 1 h): 14.5 mg/kg
15 | NC(=O)O[C@@H](Cn1nccn1)c1ccc(Cl)cc1Cl [Example 115, Carbamic acid (R)-1-(2,4-dichloro-phenyl)-2-[1,2,3]triazol-2-yl-ethyl ester] | – | – | – | N.S | – | Mice LDB % Duration in the light box ([5]; 10 mpk, ip): 245%^; ED50 ([1]; 0.25 h): 12.7 mg/kg; ED50 ([2]; 1 h): 8.43 mg/kg; IC50 [4]: 4.3 µM
16 | NC(=O)O[C@@H](Cn1ncnn1)c1ccc(Cl)c(Cl)c1 [Example 88, Carbamic acid (R)-1-(3,4-dichloro-phenyl)-2-tetrazol-2-yl-ethyl ester] | 88.4% | 52.8% | 19.1 mg/kg | – | – | –
17 | NC(=O)O[C@@H](Cn1ccnn1)c1ccc(Cl)cc1Cl [Example 130, Carbamic acid (R)-1-(2,4-dichloro-phenyl)-2-[1,2,3]triazol-1-yl-ethyl ester] | 8.8% | 42.8% | 24 mg/kg | – | – | Mice LDB % Duration in the light box [5, 6]: N.S; ED50 ([2]; 0.5 h): 8 mg/kg
